Results reported in article PMC11762167, “G Protein-Coupled Receptor 17 Inhibits Glucagon-like Peptide-1 Secretion via a Gi/o-Dependent Mechanism in Enteroendocrine Cells” (Biomolecules, 2024).

Assays:
Assay type in all cases: cell-based
hGPR17L-V96M = molecular target: T1, hGPR17L-V96M (Homo sapiens, UniProt Q13304, V96M); assay: Endpoint cAMP in GLUTag cells expressing hGPR17L-V96M
T1 construct: host or cells: GLUTag cells, adenoviral transduction
Protocol: (§1) GLUTag cells were maintained in Dulbecco’s Modified Eagle Medium (DMEM) supplemented with 10% fetal bovine serum and 1% penicillin–streptomycin in a humidified incubator at 37 °C and 5% CO2. For adenovirus transduction, GLUTag cells were seeded into poly-D-lysine coated 96-well plates or 4-chamber slides. The next day, cells were transduced with adenoviruses (100–1250 viral particles per cell at time of seeding) as indicated. After 24–30 h, adenovirus-containing media was changed to serum-free growth media for overnight serum starvation. The following day, GLUTag cells were used for cAMP or calcium signaling assays, GLP-1 secretion assays, or immunostaining and imaging.
Endpoint cAMP measurements were conducted as follows. GLUTag cells were seeded into poly-D-lysine-coated 96-well plates and transduced with adenovirus as specified above and then tested for cAMP signaling. Medium was removed and cells were washed with cAMP stimulation buffer (Hanks’ balanced salt solution (HBSS), 20 mM HEPES, pH 7.4) and then incubated in cAMP stimulation buffer for 30 min at 37 °C and 5% CO2. Cells were then treated for 30 min with agonist and forskolin in the presence of 500 µM IBMX at 37 °C and 5% CO2. Stimulation buffer was then decanted, and cAMP lysis buffer (50 mM HEPES, 10 mM CaCl2, 0.35% Triton X-100, and 500 µM IBMX) was added and shaken at 700 rpm for 1 h. Lysate was transferred to a 384-well plate, and the cAMP levels were quantified using the Cisbio HTRF cAMP (Gi kit; Revvity, Waltham, MA, USA) according to the manufacturer’s protocol.

hGPR17S = molecular target: T2, hGPR17S (Homo sapiens, UniProt Q13304); assay: Calcium mobilization in HEK293 cells transfected with hGPR17S
T2 construct: host or cells: HEK293 cells (ATCC CRL-1573), transient transfection
T2 sequence (Q13304 29-367): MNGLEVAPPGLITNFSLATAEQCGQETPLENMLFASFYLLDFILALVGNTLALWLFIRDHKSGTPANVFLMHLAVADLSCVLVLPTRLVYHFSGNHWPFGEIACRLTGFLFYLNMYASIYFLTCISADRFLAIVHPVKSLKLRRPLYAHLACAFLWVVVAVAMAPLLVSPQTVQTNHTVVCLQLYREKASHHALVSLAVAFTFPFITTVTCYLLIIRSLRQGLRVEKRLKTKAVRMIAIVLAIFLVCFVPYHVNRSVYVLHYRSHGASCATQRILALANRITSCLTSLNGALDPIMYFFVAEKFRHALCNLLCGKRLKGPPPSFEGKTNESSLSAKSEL
Protocol: HEK293 cells were maintained and transfected as previously described.
Calcium flux in HEK293 cells was measured as previously described.

mGPR17 = mGPR17 (Mus musculus, UniProt Q6NS65); assay: Calcium flux in GLUTag cells expressing mGPR17; set-up: host or cells: GLUTag cells, adenoviral transduction; settings: for Mean Diff. (Tukey's multiple comparisons test, Figure 4C): mGPR17
Chain of mGPR17 (Q6NS65 whole entry): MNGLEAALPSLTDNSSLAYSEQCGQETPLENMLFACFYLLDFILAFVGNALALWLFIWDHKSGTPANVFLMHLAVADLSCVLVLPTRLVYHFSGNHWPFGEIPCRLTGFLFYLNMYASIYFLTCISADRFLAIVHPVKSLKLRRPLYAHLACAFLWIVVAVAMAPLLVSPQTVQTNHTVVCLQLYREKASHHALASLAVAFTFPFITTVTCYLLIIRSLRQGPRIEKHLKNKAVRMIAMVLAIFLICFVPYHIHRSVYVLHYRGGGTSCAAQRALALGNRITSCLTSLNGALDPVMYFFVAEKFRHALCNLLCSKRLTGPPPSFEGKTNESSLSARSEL
Protocol: as §1
(§2) GLUTag cells were seeded into black, clear bottom, poly-D-lysine-coated 96-well plates. Cells were transduced and serum starved as specified above. Growth medium was then replaced with 100 μL/well assay buffer (HBSS, 20 mM HEPES, pH 7.4) and 100 μL/well Calcium 6 loading dye (R8190; Molecular Devices, San Jose, CA, USA). During dye loading, cells were incubated at 37 °C and 5% CO2 for 2 h. MDL29,951 or KCl was added to the wells and fluorescence (485 nm excitation, 525 nm emission, and 515 nm automatic emission cutoff) was measured using a Molecular Devices FlexStation3 (Molecular Devices) at 37 °C. For experiments with PTX, cells were pretreated with 100 ng/mL PTX overnight and 100 ng/mL PTX was included with Calcium 6 loading dye for calcium flux assays. For experiments with YM-254890, cells were pretreated for 30 min at 37 °C.

hGPR17L = hGPR17L (Homo sapiens, UniProt Q13304); assay: Calcium flux (Calcium 6) in GLUTag cells expressing hGPR17L; set-up: host or cells: GLUTag cells (murine enteroendocrine line), adenoviral transduction; Mean Diff. Ctl vs. hGPR17L: unit not given here; settings: Figure 1B; for Mean Diff.: hGPR17L
Chain of hGPR17L (Q13304 whole entry): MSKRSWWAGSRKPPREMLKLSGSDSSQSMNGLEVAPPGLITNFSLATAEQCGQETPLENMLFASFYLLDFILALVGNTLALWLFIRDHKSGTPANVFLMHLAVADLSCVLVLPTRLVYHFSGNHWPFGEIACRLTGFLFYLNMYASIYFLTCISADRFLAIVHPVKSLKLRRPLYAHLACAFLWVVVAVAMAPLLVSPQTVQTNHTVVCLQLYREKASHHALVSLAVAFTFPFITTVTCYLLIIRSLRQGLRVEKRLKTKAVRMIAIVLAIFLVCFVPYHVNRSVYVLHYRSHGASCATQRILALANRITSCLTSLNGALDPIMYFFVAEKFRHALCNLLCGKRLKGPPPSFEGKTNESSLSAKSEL
Protocol: as §1, §2

[1] = log [MDL29,951] (M) -4.5 vs. Vehicle
[2] = log [MDL29,951] (M) -5.0 vs. Vehicle

T1 sequence (Q13304 whole entry V96M): as the sequence (Q13304 whole entry) above, with V96M counted along it

## O=C(O)CCc1c(C(=O)O)[nH]c2cc(Cl)cc(Cl)c12 [MDL29,951]
hGPR17L-V96M; 10 µM forskolin, GLUTag hGPR17L-V96M
  effect on forskolin-stimulated cAMP: no significant effect
hGPR17L-V96M; hGPR17L-V96M (200), log [MDL29,951] (M) -4.0 vs. Vehicle, Forskolin stimulation, Figure 4B
  Mean Diff. (Tukey's multiple comparisons test), cAMP, Row 10 vs. Row 11: -6.053
hGPR17L-V96M; hGPR17L-V96M (200), log [MDL29,951] (M) -4.6 vs. Vehicle, Forskolin stimulation, Figure 4B
  Mean Diff. (Tukey's multiple comparisons test), cAMP, Row 9 vs. Row 11: -5.593
hGPR17L-V96M; hGPR17L-V96M (200), log [MDL29,951] (M) -5.2 vs. Vehicle, Forskolin stimulation, Figure 4B
  Mean Diff. (Tukey's multiple comparisons test), cAMP, Row 8 vs. Row 11: -7.097
hGPR17L-V96M; hGPR17L-V96M (200), log [MDL29,951] (M) -5.8 vs. Vehicle, Forskolin stimulation, Figure 4B
  Mean Diff. (Tukey's multiple comparisons test), cAMP, Row 7 vs. Row 11: -12.44
hGPR17L-V96M; hGPR17L-V96M (200), log [MDL29,951] (M) -6.4 vs. Vehicle, Forskolin stimulation, Figure 4B
  Mean Diff. (Tukey's multiple comparisons test), cAMP, Row 6 vs. Row 11: -8.68
hGPR17L-V96M; hGPR17L-V96M (200), log [MDL29,951] (M) -7.0 vs. Vehicle, Forskolin stimulation, Figure 4B
  Mean Diff. (Tukey's multiple comparisons test), cAMP, Row 5 vs. Row 11: -6.907
hGPR17L-V96M; hGPR17L-V96M (200), log [MDL29,951] (M) -7.6 vs. Vehicle, Forskolin stimulation, Figure 4B
  Mean Diff. (Tukey's multiple comparisons test), cAMP, Row 4 vs. Row 11: -4.737
hGPR17L-V96M; hGPR17L-V96M (200), log [MDL29,951] (M) -8.2 vs. Vehicle, Forskolin stimulation, Figure 4B
  Mean Diff. (Tukey's multiple comparisons test), cAMP, Row 3 vs. Row 11: -3.133
hGPR17L-V96M; hGPR17L-V96M (200), log [MDL29,951] (M) -8.8 vs. Vehicle, Forskolin stimulation, Figure 4B
  Mean Diff. (Tukey's multiple comparisons test), cAMP, Row 2 vs. Row 11: 3.127
hGPR17L-V96M; hGPR17L-V96M (200), log [MDL29,951] (M) -9.4 vs. Vehicle, Forskolin stimulation, Figure 4B
  Mean Diff. (Tukey's multiple comparisons test), cAMP, Row 1 vs. Row 11: -1.35
hGPR17S
  Calcium Emax (Mean Peak ΔF/F): 1.84±0.11
  Calcium Potency (pEC50): 7.37±0.10
hGPR17S; read-out: Calcium Potency EC50
  EC50: 43 nM
mGPR17; GLUTag mGPR17
  maximal calcium stimulation, % of the hGPR17L-WT response: 74 ± 2.7%
  pEC50, calcium responses: 6.17 ± 0.04
mGPR17; GLUTag mGPR17, read-out: EC50, calcium responses
  EC50: 680 nM
mGPR17; [1]
  Mean Diff. (Tukey's multiple comparisons test, Figure 4C): 72.98
mGPR17; [2]
  Mean Diff. (Tukey's multiple comparisons test, Figure 4C): 62.99
mGPR17; log [MDL29,951] (M) -5.5 vs. Vehicle
  Mean Diff. (Tukey's multiple comparisons test, Figure 4C): 54.24
mGPR17; log [MDL29,951] (M) -6.0 vs. Vehicle
  Mean Diff. (Tukey's multiple comparisons test, Figure 4C): 47.28
mGPR17; log [MDL29,951] (M) -6.4 vs. Vehicle
  Mean Diff. (Tukey's multiple comparisons test, Figure 4C): 29.04
mGPR17; log [MDL29,951] (M) -6.9 vs. Vehicle
  Mean Diff. (Tukey's multiple comparisons test, Figure 4C): 21.01
mGPR17; log [MDL29,951] (M) -7.4 vs. Vehicle
  Mean Diff. (Tukey's multiple comparisons test, Figure 4C): 6.844
mGPR17; log [MDL29,951] (M) -7.9 vs. Vehicle
  Mean Diff. (Tukey's multiple comparisons test, Figure 4C): -0.1174
mGPR17; log [MDL29,951] (M) -8.3 vs. Vehicle
  Mean Diff. (Tukey's multiple comparisons test, Figure 4C): -1.354
mGPR17; log [MDL29,951] (M) -8.8 vs. Vehicle
  Mean Diff. (Tukey's multiple comparisons test, Figure 4C): -0.5799
hGPR17L; Ctl vs. hGPR17L at log [MDL29,951] (M) -4.5
  Mean Diff. Ctl vs. hGPR17L: -0.777
hGPR17L; Ctl vs. hGPR17L at log [MDL29,951] (M) -5.0
  Mean Diff. Ctl vs. hGPR17L: -0.707
hGPR17L; Ctl vs. hGPR17L at log [MDL29,951] (M) -5.5
  Mean Diff. Ctl vs. hGPR17L: -0.62
hGPR17L; Ctl vs. hGPR17L at log [MDL29,951] (M) -6.0
  Mean Diff. Ctl vs. hGPR17L: -0.5407
hGPR17L; Ctl vs. hGPR17L at log [MDL29,951] (M) -6.4
  Mean Diff. Ctl vs. hGPR17L: -0.458
hGPR17L; Ctl vs. hGPR17L at log [MDL29,951] (M) -6.9
  Mean Diff. Ctl vs. hGPR17L: -0.31
hGPR17L; Ctl vs. hGPR17L at log [MDL29,951] (M) -7.4
  Mean Diff. Ctl vs. hGPR17L: -0.206
hGPR17L; Ctl vs. hGPR17L at log [MDL29,951] (M) -7.9
  Mean Diff. Ctl vs. hGPR17L: -0.06033
hGPR17L; Ctl vs. hGPR17L at log [MDL29,951] (M) -8.3
  Mean Diff. Ctl vs. hGPR17L: -0.009667
hGPR17L; Ctl vs. hGPR17L at log [MDL29,951] (M) -8.8
  Mean Diff. Ctl vs. hGPR17L: -0.002
hGPR17L; [1]
  Mean Diff.: 0.758
hGPR17L; [2]
  Mean Diff.: 0.6893
